Test [1] concerns CTP:phosphocholine cytidylyltransferase (CCT). Nature of the test: CCT assay in rat brain cortical homogenates with liposomes. The class given is biochemical. Conditions: DOPC liposomes, 200 μM; for CCT activity: 8.9±1.0 without lipid.
The next test deals with rat hippocampal neurons. Conditions: 50 μM PDMP; cited from earlier work.
The subject of test [2] is CTP:phosphocholine cytidylyltransferase (CCT). Nature of the test: CCT assay in homogenates of treated hippocampal neurons. The class given is cell-based, rat. Conditions: 50 μM PDMP. The method, then: (§1) Neurons from individual cover slips were washed twice with ice-cold phosphate-buffered saline, and cells removed by scraping into 300 μl of buffer containing 50 mM imidazole, 2 mM EDTA, 150 mM KCl, 6 mM ADP, 0.2 mM phenylmethylsulfonylfluoride, 1 μg/ml pepstatin and 1 μg/ml leupeptin. After brief sonication, an aliquot was removed for DNA determination and 100 μl was used for the CCT assay.
CCT was assayed as described (Weinhold P A and Feldman D A. 1992. Choline-phosphate cytidylyltransferase. Methods Enzymol. 209, 248-258), with some minor modifications. The assay was performed in a final volume of 200 μl containing 1.6 mM phosphorylcholine/0.25 μCi [^14C]methyl phosphorylcholine, 3 mM CTP, 12 mM magnesium acetate, and DOPC liposomes with or without oleic acid and GicCer or GalCer, as indicated in the figure legends. Liposomes were prepared by sonicating resuspended lipids in the assay buffer at room temperature for 3 min using a sonicator (Sonics & Materials Inc., Newtown, Conn.) fitted with a micro-tip probe set to 750 W output, using 25% of the maximal amplitude and with pulsations of 9.0 sec every 9.2 sec, which gave a translucent liposome preparation with no precipitates. The final concentration of DOPC and oleic acid in the liposomes was 500 μM each. […]

Test [3] shares this test system. Nature of the test: CCT assay in hippocampal neuron homogenates with substance added to the assay mixture. The class given is biochemical, rat. To be noted: 0.5 mM DOPC/0.5 mM oleic acid/0.3 mM sphingolipid or lyso-sphingolipid; 8-day-old neurons. The method, then: as §1
(§2) CCT was assayed as described (Weinhold P A and Feldman D A. 1992. Choline-phosphate cytidylyltransferase. Methods Enzymol. 209, 248-258), with some minor modifications. The assay was performed in a final volume of 200 μl containing 1.6 mM phosphorylcholine/0.25 μCi [^14C]methyl phosphorylcholine, 3 mM CTP, 12 mM magnesium acetate, and DOPC liposomes with or without oleic acid and GicCer or GalCer, as indicated in the figure legends. Liposomes were prepared by sonicating resuspended lipids in the assay buffer at room temperature for 3 min using a sonicator (Sonics & Materials Inc., Newtown, Conn.) fitted with a micro-tip probe set to 750 W output, using 25% of the maximal amplitude and with pulsations of 9.0 sec every 9.2 sec, which gave a translucent liposome preparation with no precipitates. The final concentration of DOPC and oleic acid in the liposomes was 500 μM each. The reaction was terminated after 25 min at 37° C. by addition of 200 μl of 150 mM phosphorylcholine in 10% trichloroacetic acid. CDP-choline was recovered by addition of 2 ml of 6% charcoal in water (w/v). After 30 min at room temperature the charcoal suspension was washed 4 times with water and centrifuged at 1,000 gav for 10 min. The aqueous supernatants were removed and CDP-choline was eluted from the charcoal with 3 washes of water/ethanol/28% NH4OH (116:188:11, v/v/v). Eluates were pooled and evaporated to dryness under N2. Phosphorylcholine and CDP-choline were added to the tubes and the samples separated by TLC using 0.9% NaCl/methanol/28% NE4OH (50:70:5, v/v/v) as the developing solvent. Metabolites were identified by iodine, and the CDP-choline spot was scraped into scintillation vials for scintillation counting.
CCT activity was assayed in homogenates prepared from 8-day-old normal rat hippocampal neurons as described herein above. The reaction mixture comprised 0.5 mM DOPC/0.5 mM oleic acid/0.3 mM sphingolipid or lyso-sphingolipid. CCT activity with each sphingolipid or lyso-sphingolipid was measured twice. Basal CCT activity differed by ˜20% between the two experiments; however, the extent of activation or inhibition of CT activity was similar for each sphingolipid and lyso-sphingolipid.

For test [4] the test system is unchanged. The test can be described thus: CCT assay in rat brain cortical homogenates with liposomes. The class given is biochemical. The method, then: as §2
When CCT was assayed in rat or mouse brain cortical homogenates (1 g tissue/12.5 ml of buffer), the homogenate was first centrifuged (200 gav, 20 min) to remove cell debris. The homogenate was diluted with assay buffer to give a final concentration of 200 μg protein/ml. CCT activity was also assayed using purified rat brain CCT (see below).

Another test relates to purified rat brain CCT. Nature of the test: CCT assay with purified rat brain CCT and liposomes. The class given is biochemical. How it is done: as §2
Rat brain CCT was purified by a method similar to that described for rat liver (Weinhold and Feldman, supra; Weinhold P A Rounsifer M E and Feldman D A. 1986. The purification and characterization of CTP:phosphorylcholine cytidylyltransferase from rat liver. J Biol Chem 261:5104-5110). Rat brains (11 g) were isolated from 8-10-week old rats and homogenized in 51 ml of buffer A (50 mM Tris-HCl pH 7.4, 150 mM NaCl, 1 mM EDTA, 2 mM dithiothreitol, 0.025% (w/v) sodium azide, 1 mM phenylmethylsulfonylfluoride). Brain cytosol was prepared by collecting the supernatants obtained after two sequential centrifugation steps at 10,000 gav for 20 min, and 100,000 gav for 1 h. The protein concentration of the cytosol was adjusted to 6 mg/ml with buffer A, egg yolk PC/oleic acid liposomes were added, followed by acid precipitation. The precipitate was re-suspended in 54 ml of buffer A containing 20 mM n-octyl-β-D-glucopyranoside and 1 mM phenylmethylsulfonylfluoride for 30 min at room temperature. After centrifugation (10,000 gav, 20 min), the n-octyl-β-D-glucopyranoside extract was loaded onto a DEAE-sepharose CL-6B column that had been previously packed and equilibrated with 300 ml of buffer A. All elution procedures were performed using a flow rate of 40 ml/h. The column was successively washed with 100 ml of buffer A, 300 ml of a gradient of 150 mM to 300 mM NaCl in buffer B (50 mM Tris-HCl pH 7.4, 1 mM EDTA, 2 mM dithiothreitol, 0.025% (w/v) sodium azide), and 150 ml of buffer B containing 300 mM NaCl. CCT was eluted with 70 ml of buffer B containing 400 mM NaCl and 50 mM n-octyl-β-D-glucopyranoside.
The fractions containing CCT activity were pooled, diluted with 4 volumes of buffer A and loaded onto a HTP gel hydroxyapatite column (BioRad) that had previously been equilibrated with 200 ml of buffer A. Elutions were performed at flow rates of 20 ml/hour. […]

[5] abbreviates: liposomes of DOPC and oleic acid.

Take `CCCCCCCCCCCCCC=CC(O)C(COC1OC(CO)C(O)C(O)C1O)NC(=O)CCCCCCC` (centres unmarked) [C8-GalCer]: in test [1], the CCT activity is recorded as 9.1±0.8 nmol/min/mg of protein.
As to `CCCCCCCCCCCCC/C=C/[C@@H](O)[C@H](COC1OC(CO)C(O)C(O)C1O)NC(=O)CCCCCCC` (some centres unmarked) [C8-GlcCer], in test [1], the CCT activity is listed as 25.9±4.4 nmol/min/mg of protein.
In the case of `CCCCCCCCCC(=O)N[C@H](CN1CCOCC1)[C@H](O)c1ccccc1` [PDMP, D-threo-1-phenyl-2-decanoyl-amino-3-morpholino-1-propanol], the “rate of axonal growth” value in the test with rat hippocampal neurons is reported as “reduction”. In addition, in test [2], the “CCT activity after treatment of neurons” value is on record as “significant reduction”.
Take `CCCCCCCCCCCCC/C=C/[C@@H](O)[C@@H](N)CO[C@@H]1O[C@H](CO)[C@H](O)[C@H](O)[C@H]1O` [galactosylsphingosine]: in test [3], the “effect on CCT activity” value is reported as “No significant effect”. For the same molecule, the “effect of exogenously-added lipid on CCT activity” value (from here on “effect of exogenously-added lipid”) in test [4] is on record as “no elevation of activity”.
Regarding `CCCCCCCCCCCCC/C=C/[C@@H](O)[C@@H](N)CO[C@@H]1O[C@H](CO)[C@@H](O)[C@H](O)[C@H]1O` [glucosylsphingosine], the “effect on CCT activity” value in test [3] is “No significant effect”. The “effect of exogenously-added lipid” value in test [4] is reported as “no elevation of activity”.
As for `CCCCCCCCCCCCC/C=C/[C@@H](O)C(N)CO[C@H]1O[C@H](CO)[C@@H](O[C@@H]2O[C@H](CO)[C@H](O)[C@H](O)[C@H]2O)[C@H](O)[C@@H]1O` (some centres unmarked) [lactosylsphingosine], in test [3], the “effect on CCT activity” value is recorded as “inhibited”.
Regarding `CCCCCCCCCCCCC/C=C/[C@@H](O)[C@@H](N)COP(=O)([O-])OCC[N+](C)(C)C` [lysosphingomyelin], the “effect on CCT activity” value in test [3] is “inhibited”.
As to `CCCCCCCC/C=C\CCCCCCCC(=O)O` [oleic acid], the “CCT activity in DOPC/oleic acid liposomes versus DOPC liposomes alone” value in the test on purified rat brain CCT (DOPC/oleic acid liposomes) is about 10 fold.
`CCCCCCCCCCCCC/C=C/[C@@H](O)[C@@H](N)CO` [sphingosine]: the “effect on CCT activity” value in test [3] is “inhibited”.
With ceramide, the “effect on CCT activity” value in test [3] is “inhibited”. Also, the “effect of exogenously-added lipid” value in test [4] is given as “did not increase CCT activity”.
As to galactosylceramide [GalCer], the “effect on purified CCT” value with purified rat brain CCT (DOPC liposomes) is “no significant effect”. The “effect on CCT activity” value in the test with purified rat brain CCT (DOPC/oleic acid liposomes) is “no significant effect”; in test [3] it was “no significant effect”; in test [4] (DOPC liposomes), “did not affect”; in test [4] (setting [5]) it was “had no effect”.
Consider glucosylceramide [GlcCer], for which, in the test on purified rat brain CCT (DOPC liposomes, 2.5 mole percent), the “activation of CCT at the lowest concentration” value is “significant activation”. The “maximal activation of CCT” value in the test on purified rat brain CCT (DOPC liposomes, 10 mole percent) is given as 3-4 fold. In addition, the “effect on CCT activity” value in the test with purified rat brain CCT (DOPC/oleic acid liposomes) is on record as “small but significant increase”; in test [3] it was “activated”; in test [4] (setting [5]), “increased CCT activity”. Also, the “increase in the rate of CDP-choline synthesis” value in test [1] is recorded as over 2 fold.
For the molecule lactosylceramide, the “effect on CCT activity” value in test [3] is listed as “inhibited”. Also, the “effect of exogenously-added lipid” value in test [4] is given as “did not increase CCT activity”.
On to sphingomyelin [SM], for which the “effect on CCT activity” value in test [3] was “inhibited”. Moreover, the “effect of exogenously-added lipid” value in test [4] is reported as “did not increase CCT activity”.

(Values after patent US7429460B2, “Methods of screening for inhibitors of phospholipid synthesis related to glycolipid-storage diseases” (Yeda Research and Development Co., Ltd., priority 2003, dated 2008).)
